Legend:
[1] = system: human smooth muscle cells; assay: Human smooth muscle cell monolayer survival and repopulation following cryopreservation (Calcein-AM assay); assay type: cell-based
Method: (§1) The device was used to thaw the samples, which were frozen in situ in monolayers in standard 96-well tissue culture plates. Samples were thawed from less than −170° C. to about 4° C. in the 96-well plate format in about 5 mins in a dry clean (“sterile”) environment.
The study described in example 3.1 focuses on the collection of cell survival data and the impact of post-thaw conditioning on human smooth muscle cells (SMCs). Specific activities included application of the high throughput monolayer sample cryopreservation protocol and collection of data (survival and cell death) from samples frozen using 6 unique cryopreservation solutions (U5, U10, U20, U5G10, U10G10, DP6) and 6 unique modulators (resveratrol, salubrinal, caspase inhibitors (IV, 8, 9) and NAC). Survival was determined at 24 hours post-thaw to allow for the manifestation of any delayed onset cell death pathways to be executed. Further, cell recovery was included to evaluate the long term potency and repopulation potential of the various samples.
A series of experiments was conducted to evaluate the performance of several solutions (U5, U10, U20, U5G10, U10G10 and DP6) as well as the impact of pre-freeze (PF) and post-warming (PW) conditioning with the apoptotic inhibitors Caspase 8, Caspase 9 and Caspase IV inhibitors. Cell samples were processed using the monolayer CP protocol and analyzed following 24 hours to 7 days post thaw for survival and recovery. These experiments were conducted to evaluate the impact of molecular modulators (inhibitors) during pre-freeze or post-thaw recovery on cell survival when added to the media 1 hour prior to or 24 hour following cryopreservation. […] To this end, samples were probed with Calcein-AM, incubated for 30 mins in the dark and then imaged using a Zeiss Axiovert 200 fluorescence microscope and Axiovision software. Images were taken at 24 hours to 7 days post-thaw to allow for assessment of solution and post-thaw conditioning agent performance.
As in previous experiments, the 24 hour time point was used for initial survival assessment, as this time point allows for the manifestation of molecular based cell stress-induced death. This provides a more accurate measure of survival than 0 or 1 hour post-thaw assessment, as is typically used. The 3 day time point was selected to assess re-population potential of any surviving cells as an indicator of long term potency.
For smooth muscle cell pre-freeze (PF) conditioning studies, 1 hour prior to CP addition, culture media was decanted and 100 μL of fresh media supplemented with caspase 8, 9, or IV was added to each respective well. Samples were then incubated at 37° C. for 1 hour, followed by media removal and addition of 100 μL of CP solution to samples followed by cryopreservation as described above. Following preservation, samples were thawed, diluted, and placed into culture. Following 24 hours recovery, cell viability was assessed.
For smooth muscle cell post-warming (PW) conditioning studies, following thawing and cryopreservation, CP solution was removed or diluted with culture media supplemented with caspase 8, 9, or IV. FIG. 18 illustrates the impact of apoptotic inhibition post-freeze conditioning on human smooth muscle cell survival 1 day following cryopreservation with and without reduced CPA.
For P/P conditioning studies, 1 hour prior to CP addition, culture media was decanted and 100 μL of fresh media supplement with caspase 8, 9, or IV was added to each respective well.

[2] = system: endothelial and smooth muscle cells; assay: Summary of Examples 2-3: post-thaw survival of endothelial and smooth muscle cells (Calcein-AM assay); assay type: cell-based, human
Method: For pre-freeze (PF), post-warming (PW) and pre/post (P/P) conditioning studies, molecular modulation agents targeting inhibition of apoptosis (Caspase inhibitor IV, 8, 9 and a combination of Caspases 8 and 9), reduction of free-radical damage (resveratrol and NAC), and activation of the unfolded protein response (salubrinal) were employed as supplements in the media 1 hour prior to freezing (pre-freeze condition) or for 1 day following thawing and CPA removal from frozen samples (post-warming condition).
as §1
The P/P regime was followed by PW using Caspase 8 inhibition or NAC inhibition.

With CC(=O)N[C@@H](CS)C(=O)O [NAC, n-acetyl cysteine] the “repopulation / recovery at 3 days post-thaw” value ([1]; P/P conditioning with oxidative stress modulators) was “day 3 recovery reached a monolayer similar to non-treated controls”, the “day 1 cell survival” value ([1]; P/P conditioning, vs non-conditioned samples) was “slight to no improvement in cell survival” and the “post-thaw cell survival or recovery (overall)” value ([1]; PW conditioning in combination with the other solutions) was “Broader solution benefit”. For the same molecule, the “cell recovery / repopulation, day 3” value ([1]; PW conditioning with oxidative stress modulators) was “improved cell recovery”, the “day 1 cell survival” value ([1]; PW conditioning, vs non-treated matched samples) was “improvement in cell survival” and the “day 1 post-thaw cell survival and cell recovery” value ([2]; PF, PW and P/P conditioning, Unisol based solutions) was “Improvements in survival”. The “increase in cell survival over non-treated samples” value ([2]; PW conditioning) was roughly 50%.

— patent publication US20180368393A1, “PRE- AND POST-STORAGE STRESS RESPONSE CONDITIONING” (CPSI HOLDINGS LLC, priority 2017, published 2018)
